Assay results as given in ChEMBL document CHEMBL1141856, “Iridoid glycosides of Leonurus persicus” (J Nat Prod, 1999).
The source made the active and inactive calls. The calls are words filed in the database; no cut-off is given here.

Tested on: Staphylococcus epidermidis
Assay: Antimicrobial activity against Staphylococcus epidermidis at 50 ug/spot by agar overlay method
Format: functional, organism-based

For `COc1cc(/C=C/C(=O)O[C@H]2[C@H](O[C@@H]3O[C@@H](C)[C@H](O)[C@@H](O)[C@H]3O)[C@@H](O)[C@H](OCCc3ccc(O)c(O)c3)O[C@@H]2CO)ccc1O`, the Activity was “Active”.
